# Results taken from US10544150B2, “NK-3 receptor selective antagonist compounds, pharmaceutical composition and methods for use in NK-3 receptors mediated disorders” (Ogeda SA, priority 2010, dated 2020).
# Biological target: human NK-3 receptor (Homo sapiens (Human), UniProt P29371)
# Assay: 3H-SB222200 binding competition assay with human NK-3 receptor
# Details: 3H-SB222200 displacement, CHO cell membranes expressing human NK3 receptor; read-out: Ki range
# Procedure: The affinity of compounds of the invention for the tachykinin receptors was determined by measuring the ability of the compounds of the invention to displace a radiolabeled ligand from its specifics binding site.
# ^3H-SB222200 Binding Competition Assay with Human NK-3 Receptor
# The ability of the compounds of the invention to inhibit the binding of the NK-3 receptor selective antagonist SB222200 was assessed by an in vitro radioligand binding assay. Membranes were prepared from Chinese hamster ovary recombinant cells which express the human NK3 receptor. The membranes were incubated with 5 nM ^3H-SB222200_(ARC) in a HEPES 25 mM/NaCl 0.1M/CaCl2 1 mM/MgCl2 5 Mm/BSA 0.5%/Saponin 10 μg/ml buffer at pH 7.4 and various concentrations of the compounds of the invention. The amount of tritiated SB222200 bound to the receptor was determined after filtration by the quantification of membrane associated radioactivity using the TopCount-NXT reader (Packard). […] In Table 3 biological results obtained using the ^3H-SB222200 binding competition assay with compounds of the invention are set out in tabulated form. In this table the calculated Ki is given. The Ki value obtained (in accordance with the protocol set forth above) is represented as follows: “+++” means Ki<500 nM; “++” means 500 nM≤Ki≤1 μM; “+” means 1 μM<Ki≤5 μM; “#” means Ki>5 μM.
# Chain of human NK-3 receptor (P29371 whole entry): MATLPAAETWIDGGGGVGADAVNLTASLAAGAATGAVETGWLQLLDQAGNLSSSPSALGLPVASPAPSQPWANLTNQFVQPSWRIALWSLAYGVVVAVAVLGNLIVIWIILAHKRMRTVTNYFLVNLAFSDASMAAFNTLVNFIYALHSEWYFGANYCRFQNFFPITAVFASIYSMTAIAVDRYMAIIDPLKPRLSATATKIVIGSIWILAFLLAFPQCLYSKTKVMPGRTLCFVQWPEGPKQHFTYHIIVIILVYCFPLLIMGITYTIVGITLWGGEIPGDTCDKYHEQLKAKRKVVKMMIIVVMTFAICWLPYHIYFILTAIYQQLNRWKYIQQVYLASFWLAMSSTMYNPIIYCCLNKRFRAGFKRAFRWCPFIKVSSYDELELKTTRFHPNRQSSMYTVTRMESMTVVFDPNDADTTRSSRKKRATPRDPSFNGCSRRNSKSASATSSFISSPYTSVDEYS
row,Structure (SMILES),Ki
1,"Cc1scnc1-c1nnc2n1CCN(C(=O)c1ccc(-c3cccs3)cc1)C2 [Compound 275, (3-(5-methylthiazol-4-yl)-5,6-dihydro-[1,2,4]triazolo[4,3-a]pyrazin-7(8H)-yl)(4-(thiophen-2-yl)phenyl)methanone]",> 5 µM
2,"O=C(c1ccc(-c2ccc(F)cc2)cc1)N1CCn2c(nnc2-c2ccccn2)C1 [Compound 16, (4′-fluoro-[1,1′-biphenyl]-4-yl)(3-(pyridin-2-yl)-5,6-dihydro-[1,2,4]triazolo[4,3-a]pyrazin-7(8H)-yl)methanone]",1 to 5 µM
3,"O=C(c1ccccc1-c1ccccc1)N1CCn2c(nnc2-c2ccc3ccccc3n2)C1 [Compound 96, [1,1′-biphenyl]-2-yl(3-(quinolin-2-yl)-5,6-dihydro-[1,2,4]triazolo[4,3-a]pyrazin-7(8H)-yl)methanone]",> 5 µM
4,"COc1ccccc1-c1nc(-c2nnc3n2CCN(C(=O)c2ccc(F)cc2)C3)cs1 [Compound 201, (4-fluorophenyl)(3-(2-(2-methoxyphenyl)thiazol-4-yl)-5,6-dihydro-[1,2,4]triazolo[4,3-a]pyrazin-7(8H)-yl)methanone]",1 to 5 µM
5,"CC1CN(C(=O)c2ccc(-c3cccs3)cc2)Cc2nnc(-c3csc(-c4ccc(F)cc4)n3)n21 (stereo not drawn) [Compound 108, (3-(2-(4-fluorophenyl)thiazol-4-yl)-5-methyl-5,6-dihydro-[1,2,4]triazolo[4,3-a]pyrazin-7(8H)-yl)(4-(thiophen-2-yl)phenyl)methanone]",0.5 to 1 µM
6,"O=C(c1cc(-c2ccc(Cl)c(Cl)c2)n[nH]1)N1CCn2c(nnc2-c2ccccn2)C1 [Compound 4, (3-(3,4-dichlorophenyl)-1H-pyrazol-5-yl)(3-(pyridin-2-yl)-5,6-dihydro-[1,2,4]triazolo[4,3-a]pyrazin-7(8H)-yl)methanone]",1 to 5 µM
7,"O=C(c1ccc(-c2ccccc2)cc1)N1CCn2c(nnc2-c2ccc3ccccc3n2)C1 [Compound 19, [1,1′-biphenyl]-4-yl(3-(quinolin-2-yl)-5,6-dihydro-[1,2,4]triazolo[4,3-a]pyrazin-7(8H)-yl)methanone]",< 0.5 µM
8,"CN(C)c1ccc(C(=O)N2CCn3c(nnc3-c3csc(-c4ccc(F)cc4)n3)C2)cc1 [Compound 253, (4-(dimethylamino)phenyl)(3-(2-(4-fluorophenyl)thiazol-4-yl)-5,6-dihydro-[1,2,4]triazolo[4,3-a]pyrazin-7(8H)-yl)methanone]",0.5 to 1 µM
9,"O=C(c1ccc(-c2ccccc2)cn1)N1CCn2c(nnc2-c2ccc3ccccc3n2)C1 [Compound 90, (5-phenylpyridin-2-yl)(3-(quinolin-2-yl)-5,6-dihydro-[1,2,4]triazolo[4,3-a]pyrazin-7(8H)-yl)methanone]",< 0.5 µM
10,"O=C(c1ccc(-c2cccs2)cc1)N1CCn2c(nnc2-c2csc(-c3ncccn3)n2)C1 [Compound 226, (3-(2-(pyrimidin-2-yl)thiazol-4-yl)-5,6-dihydro-[1,2,4]triazolo[4,3-a]pyrazin-7(8H)-yl)(4-(thiophen-2-yl)phenyl)methanone]",> 5 µM
11,"CC1c2nnc(-c3nc(-c4ccccc4)no3)n2CCN1C(=O)c1ccc(-c2cccs2)cc1 (stereo not drawn) [Compound 85, (8-methyl-3-(3-phenyl-1,2,4-oxadiazol-5-yl)-5,6-dihydro-[1,2,4]triazolo[4,3-a]pyrazin-7(8H)-yl)(4-(thiophen-2-yl)phenyl)methanone]",< 0.5 µM
12,"O=C(c1ccccc1)N1CCn2c(nnc2-c2ccccn2)C1 [Compound 231, phenyl(3-(pyridin-2-yl)-5,6-dihydro-[1,2,4]triazolo[4,3-a]pyrazin-7(8H)-yl)methanone]",1 to 5 µM
13,"Cc1cccc(-c2nnc3n2CCN(C(=O)c2ccc(F)cc2)C3C)n1 (stereo not drawn) [Compound 278, (4-fluorophenyl)(8-methyl-3-(6-methylpyridin-2-yl)-5,6-dihydro-[1,2,4]triazolo[4,3-a]pyrazin-7(8H)-yl)methanone]",< 0.5 µM

# Other lines, results leading:
row,Ki,Structure (SMILES)
1,< 0.5 µM,"Cn1nc(-c2ccccc2)cc1-c1nnc2n1CCN(C(=O)c1ccc(-c3cccs3)cc1)C2 [Compound 220, (3-(1-methyl-3-phenyl-1H-pyrazol-5-yl)-5,6-dihydro-[1,2,4]triazolo[4,3-a]pyrazin-7(8H)-yl)(4-(thiophen-2-yl)phenyl)methanone]"
2,< 0.5 µM,"O=C(c1ccc(F)cc1)N1CCn2c(nnc2-c2csc(N3CCOCC3)n2)C1 [Compound 9, (4-fluorophenyl)(3-(2-morpholinothiazol-4-yl)-5,6-dihydro-[1,2,4]triazolo[4,3-a]pyrazin-7(8H)-yl)methanone]"
3,< 0.5 µM,"CC1c2nnc(-c3coc(-c4ccccc4)n3)n2CCN1C(=O)c1ccc(F)cc1 (stereo not drawn) [Compound 48, (4-fluorophenyl)(8-methyl-3-(2-phenyloxazol-4-yl)-5,6-dihydro-[1,2,4]triazolo[4,3-a]pyrazin-7(8H)-yl)methanone]"
4,< 0.5 µM,"CC1CN(c2nc(-c3nnc4n3CCN(C(=O)c3ccc(-c5cccs5)cc3)C4)cs2)CCO1 (stereo not drawn) [Compound 273, (3-(2-(2-methylmorpholino)thiazol-4-yl)-5,6-dihydro-[1,2,4]triazolo[4,3-a]pyrazin-7(8H)-yl)(4-(thiophen-2-yl)phenyl)methanone]"
5,< 0.5 µM,"CC1(C)CN(c2nc(-c3nnc4n3CCN(C(=O)c3ccc(-c5cccs5)cc3)C4)cs2)CCO1 [Compound 266, (3-(2-(2,2-dimethylmorpholino)thiazol-4-yl)-5,6-dihydro-[1,2,4]triazolo[4,3-a]pyrazin-7(8H)-yl)(4-(thiophen-2-yl)phenyl)methanone]"
6,< 0.5 µM,"O=C(c1ccc(F)cc1)N1CCn2c(nnc2-c2csc(-c3ccccc3O)n2)C1 [Compound 271, (4-fluorophenyl)(3-(2-(2-hydroxyphenyl)thiazol-4-yl)-5,6-dihydro-[1,2,4]triazolo[4,3-a]pyrazin-7(8H)-yl)methanone]"
7,< 0.5 µM,"C[C@@H]1c2nnc(-c3csc(N4CCOCC4)n3)n2CCN1C(=O)c1ccc(-c2ccccc2)cc1 [Compound 118, (R)-[1,1′-biphenyl]-4-yl(8-methyl-3-(2-morpholinothiazol-4-yl)-5,6-dihydro-[1,2,4]triazolo[4,3-a]pyrazin-7(8H)-yl)methanone]"
8,< 0.5 µM,"O=C(c1ccc(-c2cccs2)cc1)N1CCn2c(nnc2-c2csc(-c3ccc(N4CCCC4)cc3)n2)C1 [Compound 245, (3-(2-(4-(pyrrolidin-1-yl)phenyl)thiazol-4-yl)-5,6-dihydro-[1,2,4]triazolo[4,3-a]pyrazin-7(8H)-yl)(4-(thiophen-2-yl)phenyl)methanone]"
9,< 0.5 µM,"CC1c2nnc(-c3csc(-c4ccc(F)cc4)n3)n2CCN1C(=O)c1ccc(F)c(F)c1 (stereo not drawn) [Compound 110, (3,4-difluorophenyl)(3-(2-(4-fluorophenyl)thiazol-4-yl)-8-methyl-5,6-dihydro-[1,2,4]triazolo[4,3-a]pyrazin-7(8H)-yl)methanone]"
10,< 0.5 µM,"O=C(c1ccc(-c2cccs2)cc1)N1CCn2c(nnc2-c2cc(-c3ccccc3)nn2CCO)C1 [Compound 284, (3-(1-(2-hydroxyethyl)-3-phenyl-1H-pyrazol-5-yl)-5,6-dihydro-[1,2,4]triazolo[4,3-a]pyrazin-7(8H)-yl)(4-(thiophen-2-yl)phenyl)methanone]"
11,< 0.5 µM,"O=C(c1ccc(-c2cccs2)cc1)N1CCn2c(nnc2-c2noc(-c3ccccc3)n2)C1 [Compound 171, (3-(5-phenyl-1,2,4-oxadiazol-3-yl)-5,6-dihydro-[1,2,4]triazolo[4,3-a]pyrazin-7(8H)-yl)(4-(thiophen-2-yl)phenyl)methanone]"
12,< 0.5 µM,"CC1c2nnc(-c3ccc4ccccc4n3)n2CCN1C(=O)c1ccc(F)cc1 (stereo not drawn) [Compound 61, (4-fluorophenyl)(8-methyl-3-(quinolin-2-yl)-5,6-dihydro-[1,2,4]triazolo[4,3-a]pyrazin-7(8H)-yl)methanone]"
13,< 0.5 µM,"CC1c2nnc(-c3csc(-c4ccc(F)cc4)n3)n2CCN1C(=O)c1ccc(-c2cccs2)cc1 (stereo not drawn) [Compound 78, (3-(2-(4-fluorophenyl)thiazol-4-yl)-8-methyl-5,6-dihydro-[1,2,4]triazolo[4,3-a]pyrazin-7(8H)-yl)(4-(thiophen-2-yl)phenyl)methanone]"
14,< 0.5 µM,"O=C(c1ccc(-c2cccs2)cc1)N1CCn2c(nnc2-c2csc(-c3cnccn3)n2)C1 [Compound 235, (3-(2-(pyrazin-2-yl)thiazol-4-yl)-5,6-dihydro-[1,2,4]triazolo[4,3-a]pyrazin-7(8H)-yl)(4-(thiophen-2-yl)phenyl)methanone]"
15,< 0.5 µM,"CC1c2nnc(-c3csc(-c4ccc(F)cc4F)n3)n2CCN1C(=O)c1ccc(F)cc1 (stereo not drawn) [Compound 77, (3-(2-(2,4-difluorophenyl)thiazol-4-yl)-8-methyl-5,6-dihydro-[1,2,4]triazolo[4,3-a]pyrazin-7(8H)-yl)(4-fluorophenyl)methanone]"
16,< 0.5 µM,"Cc1cccc(-c2nnc3n2CCN(C(=O)c2ccc(-c4ccccc4)cc2)C3C)n1 (stereo not drawn) [Compound 286, [1,1′-biphenyl]-4-yl(8-methyl-3-(6-methylpyridin-2-yl)-5,6-dihydro-[1,2,4]triazolo[4,3-a]pyrazin-7(8H)-yl)methanone]"
17,< 0.5 µM,"C[C@H]1c2nnc(-c3csc(-c4ccc(F)cc4)n3)n2CCN1C(=O)c1ccc(F)cc1 [Compound 164, (S)-(4-fluorophenyl)(3-(2-(4-fluorophenyl)thiazol-4-yl)-8-methyl-5,6-dihydro-[1,2,4]triazolo[4,3-a]pyrazin-7(8H)-yl)methanone]"
